Measurements from patent US20110178104A1, “Anti-Heparin Compounds” (POLYMEDIX INC., priority 2010, published 2011).
Values after ≈ are worked out from the molar mass of the structure shown. Values joined by “and” are separate entries in the source; they are usually repeats but may differ in a detail not shown here. Equal entries are not always repeated.

Tests used:
[1] = Cytotoxicity colorimetric assay, NIH/3T3; format: cell-based, mouse; conditions: mouse, NIH/3T3 cells, one hour in serum-free media
In short: (§1)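 HepG2 cells (3×10^4/well, MEM + 10% FBS) and NIH/3T3 cells (2×10^4/well, DMEM + 10% BCS) were exposed to compound for 1 h in serum-free medium. Viability read by tetrazolium-to-formazan bioreduction after return to serum medium; EC50 from a four-parameter logistic fit.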

[2] = test system: isolated human erythrocytes; assay: cells; format: cell-based; conditions: human RBC, 1 hour at 37° C.; for EC50: Homo sapiens, Erythrocyte, 1 h, read-out: Hemolysis EC50
In short: (§2)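 Test agent was serially diluted two-fold over 0.48–1000 µg/ml and incubated for 1 h at 37 °C with shaking, using erythrocytes from pooled human blood diluted in Tris-buffered saline pH 7.4 (0.22% stock). Hemolysis was measured as supernatant absorbance at 405 nm. A four-parameter logistic equation gave EC50, and melittin served as the positive control.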

tinzaparin = assay: FXa amidolytic assay (Example 10), tinzaparin; conditions: read-out: Tinzap FXa EC50; tinzaparin 0.1 ug/ml; human antithrombin, bovine Factor Xa
enoxaparin = assay: FXa amidolytic assay (Example 10), enoxaparin; conditions: read-out: Enox FXa EC50; enoxaparin 0.1 ug/ml; human antithrombin, bovine Factor Xa
fondaparinux [3] = assay: FXa amidolytic assay (Example 10), fondaparinux; conditions: for EC50: read-out: Fondap FXa EC50, fondaparinux 0.02 μg/mL, human antithrombin, bovine Factor Xa
Unfractionated heparin = assay: aPTT clotting assay, UFH 0.4 U/mL in plasma (Example 10); format: biochemical; conditions: unfractionated heparin 0.4 U/mL in plasma; aPTT clotting
Procedure: aPTT clotting Assay: Unfractionated heparin was mixed with plasma at a final concentration of 0.4 U/mL (or concentration which increases aPTT time to between 120 and 300 seconds). […] The ACL Elite Hemostasis analyzer (Beckman Coulter™) was used to add aPTT reagent (HemosIL SynthASil) to supplemented plasma. Clotting was initiated by addition of CaCl2 and time to clot was recorded.

[4] = Cytotoxicity colorimetric assay, HepG2; format: cell-based, human; set-up: Cytotoxicity HepG2, percent printed in parentheses after the concentration: concentration or dose not given beside the values; conditions: human, HepG2 cells, one hour in serum-free media
In short: as §1

fondaparinux [5] = assay: In vivo neutralization of fondaparinux in the rat
Procedure: Compounds were selected to test fondaparinux neutralization in vivo. Rats were pre-treated with fondaparinux administered by IV injection at 0.5 mg/kg. The rats were then treated with a single IV injection of saline, protamine or the PMX compound. Blood was collected via the orbital sinus from three rats per group at the following time points: pre-dose, 1, 3, 10, 30 and 60 min. Plasma samples were prepared for analysis of anti-factor Xa activity using an AMEX Destiny Plus Coagulation Analyzer.

in vitro = format: cell-based, human; conditions: human, pH 7.4
In short: as §2

UFH = assay: FXa amidolytic assay (Example 10), UFH; conditions: read-out: Heparin FXa uM EC50; UFH 0.03 units/mL; human antithrombin, bovine Factor Xa
NIH/3T3 cells = assay: Cytotoxicity colorimetric assay, NIH/3T3; format: cell-based, mouse; conditions: for Cytotoxicity 3T3, percent printed in parentheses after the concentration: at the concentration given
In short: as §1

HepG2 cells = assay: Cytotoxicity colorimetric assay, HepG2; format: cell-based, human; set-up: Cytotoxicity HepG2, percent printed in parentheses after the concentration: concentration or dose not given beside the values; conditions: for Cytotoxicity HepG2, percent printed in parentheses after the concentration: at the concentration given
In short: as §1

blood pressure = assay: Hemodynamic responses in the anesthetized rat; format: in vivo; conditions: anesthetized rat, 8 or 16 mg/kg 10 minute IV infusion after heparin 50 U/kg
Description: As a key safety issue for cationic compounds is reduction in blood pressure shortly after administration. To address this hemodynamic issue, a medicinal chemistry strategy with literature precedence of introducing carboxylic acid functionality was applied to the salicylamide series of compounds. […] Surgically prepared animals were purchased from Charles River Laboratories, Raleigh, N.C. Animals were anesthetized on the day of experiment with isoflurane (1.8-4%). Blood pressure and heart rate data were collected on a Grass Polygraph recorder. The test articles, vehicle or protamine dosing preparations were administered once to each rat by a 10 minute intravenous infusion three minutes following a single intravenous injection of heparin (50 U/kg). Each animal received a dose volume of 2.0 mL/kg. Blood pressure was recorded prior to treatment for approximately 1 minute and immediately following heparin, immediately following vehicle, test articles or protamine and at 5, 15, 30, and 60 minutes following dosing. The doses of test agent were either 8 mg/kg or 16 mg/kg. The differences in hemodynamic effect at 16 mg/kg were especially profound (FIG. 5).

Compound | EC50 (tinzaparin) | EC50 (enoxaparin) | EC50 (fondaparinux [3]) | EC50 (Unfractionated heparin) | EC50 (UFH) | EC50 at 1 h [1] | EC50 [2] | Potent LMWH-antagonists with superior anti-fondaparinux activity (summary) (fondaparinux [3]) | EC50 at 1 h [4] | reduction of Factor Xa (anti-factor Xa) levels after fondaparinux (fondaparinux [5]; fondaparinux 0.5 mg/kg IV, test agent 2 and 5 mg/kg IV) | in vivo efficacy versus fondaparinux (summary) (fondaparinux [5]; in vivo) | hemolysis at 1 h (in vitro) | Cytotoxicity 3T3, percent printed in parentheses after the concentration (NIH/3T3 cells) | Cytotoxicity HepG2, percent printed in parentheses after the concentration (HepG2 cells) | hemodynamic response profile (blood pressure) | Cytotoxicity 3T3 EC50 (NIH/3T3 cells; one hour in serum-free media) | Hemolysis EC50 [2] | Cytotoxicity HepG2 EC50 (HepG2 cells; one hour in serum-free media)
COc1cc(OC)c(C(=O)N[C@H]2CC[C@H](NC(=O)c3ccc(OCCCCCNC(=N)N)cc3OCCCCCNC(=N)N)CC2)cc1C(=O)N[C@H]1CC[C@H](NC(=O)c2ccc(OCCCCCNC(=N)N)cc2OCCCCCNC(=N)N)CC1 [Compound 336] | 133 nM and 84 nM | 79 nM and 91 nM | 91 nM and 63 nM | 1430 nM and 1220 nM | – | 390 µg/mL (≈ 325 µM) | > 1000 µg/mL | superior anti-fondaparinux activity | 505 µg/mL (≈ 421 µM) | significant reductions in anti-Factor Xa activity | in vivo efficacy versus fondaparinux | – | – | – | – | – | – | –
COc1ccc(NC(=O)[C@H](CCCCN)NC(=O)c2cc(NC(=O)[C@H](CCCCN)NC(=O)c3cc(NC(=O)[C@H](CCCCN)NC(=O)c4cc(NC(=O)[C@@H](N)CCCCN)ccc4OC)ccc3OC)ccc2OC)cc1C(=O)NCCC(=O)O [Compound 261] | 232 nM and 214 nM | 344 nM and 294 nM | 5980 nM and 6260 nM | 1530 nM and 2150 nM | – | > 1000 µg/mL | – | – | > 1000 µg/mL | – | – | – | – | – | did not show an improved hemodynamic effect profile | – | – | –
COc1ccc(NC(=O)[C@H](CCCCN)NC(=O)c2cc(NC(=O)[C@H](CCCCN)NC(=O)c3cc(NC(=O)[C@H](CCCCN)NC(=O)c4cc(NC(=O)[C@@H](N)Cc5c[nH]c6ccccc56)ccc4OC)ccc3OC)ccc2OC)cc1C(=O)N[C@@H](Cc1c[nH]c2ccccc12)C(=O)O [Compound 330] | 182 nM | 169 nM | 218 nM | > 10000 nM | – | – | 5.4 µg/mL (≈ 3.94 µM) | – | – | – | – | 75% | – | – | – | – | – | –
protamine sulfate [reference compound] | – | – | – | – | – | – | – | – | – | – | – | – | – | – | – | >1000 µg/mL | >1000 µg/mL | >1000 µg/mL
COc1ccc(NC(=O)[C@@H](CCCNC(=N)N)NC(=O)c2cc(NC(=O)[C@@H](CCCNC(=N)N)NC(=O)c3cc(NC(=O)[C@@H](CCCNC(=N)N)NC(=O)c4cc(NC(=O)[C@H](N)Cc5c[nH]c6ccccc56)ccc4OC)ccc3OC)ccc2OCC(=O)O)cc1C(N)=O [Compound 329] | 203 nM | 202 nM | 371 nM | 7910 nM | – | – | 18 µg/mL (≈ 13.7 µM) | – | – | – | – | 50% | – | – | – | – | – | –
COc1ccc(NC(=O)[C@@H](CCCNC(=N)N)NC(=O)c2cc(NC(=O)[C@@H](CCCNC(=N)N)NC(=O)c3cc(NC(=O)[C@@H](CCCNC(=N)N)NC(=O)c4cc(NC(=O)[C@H](N)Cc5c[nH]c6ccccc56)ccc4OC)ccc3OC)ccc2OC)cc1C(=O)N[C@H](Cc1c[nH]c2ccccc12)C(=O)O [Compound 331] | 184 nM | 155 nM | 161 nM | > 10000 nM | – | – | ~100 µg/mL (≈ 68.7 µM) | – | – | – | – | 50% | – | – | – | – | – | –
COc1ccc(NC(=O)[C@@H](CCCNC(=N)N)NC(=O)c2cc(NC(=O)[C@@H](CCCNC(=N)N)NC(=O)c3cc(NC(=O)[C@@H](CCCNC(=N)N)NC(=O)c4cc(NC(=O)[C@H](N)CCC(=O)O)ccc4OC)ccc3OC)ccc2OC)cc1C(N)=O [Compound 322] | 158 nM | 195 nM | 417 nM | 2110 nM | – | – | 1000 µg/mL (≈ 826 µM) | – | – | – | – | 50% | – | – | – | – | – | –
COc1ccc(NC(=O)[C@H](CCCNC(=N)N)NC(=O)c2cc(NC(=O)[C@H](CCCNC(=N)N)NC(=O)c3cc(NC(=O)[C@H](CCCNC(=N)N)NC(=O)c4cc(NC(=O)[C@@H](N)CCCNC(=N)N)ccc4OC)ccc3OC)ccc2OC)cc1C(=O)NCC(=O)O [Compound 284] | 138 nM | 144 nM | 390 nM | 1560 nM | – | – | 1000 µg/mL (≈ 771 µM) | – | – | – | – | 50% | – | – | – | – | – | –

The next lines start with results.

EC50 (tinzaparin) | EC50 (enoxaparin) | EC50 (fondaparinux [3]) | EC50 (Unfractionated heparin) | EC50 (UFH) | Compound | EC50 at 1 h [1] | EC50 [2] | Potent LMWH-antagonists with superior anti-fondaparinux activity (summary) (fondaparinux [3]) | EC50 at 1 h [4] | reduction of Factor Xa (anti-factor Xa) levels after fondaparinux (fondaparinux [5]; fondaparinux 0.5 mg/kg IV, test agent 2 and 5 mg/kg IV) | in vivo efficacy versus fondaparinux (summary) (fondaparinux [5]; in vivo) | hemolysis at 1 h (in vitro) | Cytotoxicity 3T3, percent printed in parentheses after the concentration (NIH/3T3 cells) | Cytotoxicity HepG2, percent printed in parentheses after the concentration (HepG2 cells) | hemodynamic response profile (blood pressure) | Cytotoxicity 3T3 EC50 (NIH/3T3 cells; one hour in serum-free media) | Hemolysis EC50 [2] | Cytotoxicity HepG2 EC50 (HepG2 cells; one hour in serum-free media)
115 nM | 107 nM | 117 nM | 3810 nM | 0.196 µM | COc1ccc(NC(=O)[C@H](CCCNC(=N)N)NC(=O)c2cc(NC(=O)[C@H](CCCNC(=N)N)NC(=O)c3cc(NC(=O)[C@H](CCCNC(=N)N)NC(=O)c4cc(NC(=O)[C@@H](N)CCCNC(=N)N)ccc4OC)ccc3OCC(=O)O)ccc2OC)cc1C(=O)N[C@@H](Cc1c[nH]c2ccccc12)C(N)=O [Compound 313] | – | ~100 µg/mL (≈ 68.1 µM) | – | – | – | – | 20% | – | – | – | – | – | –
137 nM | 131 nM | 120 nM | 2270 nM | 0.301 µM | COc1ccc(NC(=O)[C@H](CCCNC(=N)N)NC(=O)c2cc(NC(=O)[C@H](CCCNC(=N)N)NC(=O)c3cc(NC(=O)[C@H](CCCNC(=N)N)NC(=O)c4cc(NC(=O)[C@@H](N)CCCNC(=N)N)ccc4OC)ccc3OC)ccc2OC)cc1C(=O)N[C@@H](Cc1c[nH]c2ccccc12)C(=O)O [Compound 309] | 1000 µg/mL (≈ 701 µM) | ~100 µg/mL (≈ 70.1 µM) | – | 1000 µg/mL (≈ 701 µM) | – | – | – | 50% | 50% | – | – | – | –
108 nM | 114 nM | 402 nM | 1980 nM | – | COc1ccc(NC(=O)[C@H](CCCNC(=N)N)NC(=O)c2cc(NC(=O)[C@H](CCCNC(=N)N)NC(=O)c3cc(NC(=O)[C@H](CCCNC(=N)N)NC(=O)c4cc(NC(=O)[C@@H](N)CCCNC(=N)N)ccc4OC)ccc3OC)ccc2OCC(=O)O)cc1C(N)=O [Compound 287] | 1000 µg/mL (≈ 780 µM) | – | – | 1000 µg/mL (≈ 780 µM) | – | – | – | 50% | 30% | – | – | no significant decrease | –
115 nM | 119 nM | 208 nM | 720 nM | 0.292 µM | COC(=O)c1cccc(C(=O)N[C@@H](CCCCN)C(=O)Nc2ccc(OC)c(C(=O)N[C@@H](CCCCN)C(=O)Nc3ccc(OC)c(C(=O)N[C@@H](CCCCN)C(=O)Nc4ccc(OC)c(C(=O)N[C@@H](CCCCN)C(=O)Nc5ccc(OC)c(C(N)=O)c5)c4)c3)c2)c1 [Compound 340] | 1000 µg/mL (≈ 776 µM) | – | – | 1000 µg/mL (≈ 776 µM) | – | – | – | 60% | 60% | – | – | – | –
